From patent publication US9637469B2, “Pyridine derivative” (Teijin Pharma Limited, priority 2012, dated 2017)

biological target: T1, human URAT1 (Homo sapiens, UniProt Q96S37); assay: Test for inhibition of uric acid transport using human URAT1-expressing cells;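 note: three stars up to 0.2 µM two stars 0.2-2 µM one star 2-20 µM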; type: cell-based; conditions: HEK 293 cells expressing human URAT1; 14C-labeled uric acid 25 μM; uptake 37° C. for 5 min
T1 construct: Full-length cDNA of human URAT1 (hURAT1)
T1 sequence (Q96S37 1-553): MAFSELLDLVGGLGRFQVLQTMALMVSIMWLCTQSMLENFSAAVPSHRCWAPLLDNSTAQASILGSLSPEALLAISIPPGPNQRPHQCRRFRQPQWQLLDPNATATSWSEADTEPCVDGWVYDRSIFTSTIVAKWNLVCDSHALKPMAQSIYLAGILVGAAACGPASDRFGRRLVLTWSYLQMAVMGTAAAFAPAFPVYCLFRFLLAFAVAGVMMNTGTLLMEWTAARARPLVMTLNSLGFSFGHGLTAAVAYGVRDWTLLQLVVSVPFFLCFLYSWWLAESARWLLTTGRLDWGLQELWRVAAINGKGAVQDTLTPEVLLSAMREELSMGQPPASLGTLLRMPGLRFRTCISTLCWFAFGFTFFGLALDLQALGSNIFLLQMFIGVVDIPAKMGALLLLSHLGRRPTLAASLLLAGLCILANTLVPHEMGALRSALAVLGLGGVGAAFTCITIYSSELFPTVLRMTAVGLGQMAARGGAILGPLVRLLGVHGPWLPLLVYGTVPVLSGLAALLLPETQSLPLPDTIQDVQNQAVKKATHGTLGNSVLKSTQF
How it was run: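 HEK293 cells stably transfected with full-length hURAT1, preincubated 10 min at 37 °C in HBSS with NaCl replaced by Na gluconate. Uptake of 25 μM ¹⁴C-uric acid with compound ran 5 min at 37 °C, then scintillation counting. IC50 derived from % of DMSO-control URAT1-specific uptake.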

Inhibitory Activity (IC50 of uric acid transport inhibition) | Compound
* * | O=C(O)c1c(C2=CCCC2)nc(-c2cccnc2)n1Cc1cc(Cl)ccc1Cl [Compound A103, 4-(1-cyclopenten-1-yl)-1-(2,5-dichlorobenzyl)-2-(pyridin-3-yl)-1H-imidazole-5-carboxylic acid]
* * | O=C(O)c1c(C(F)(F)F)nc(-c2cccnc2)n1Cc1csc2cccc(Br)c12 [Compound A31, 1-((4-bromobenzo[b]thiophen-3-yl)methyl)-2-(pyridin-3-yl)-4-(trifluoromethyl)-1H-imidazole-5-carboxylic acid]
* * * | Cc1nc(-c2cncc(Cl)c2)n(Cc2cc(C(F)(F)F)ccc2C(F)(F)F)c1C(=O)O [Compound A173, 1-(2,5-bis(trifluoromethyl)benzyl)-2-(5-chloropyridin-3-yl)-4-methyl-1H-imidazole-5-carboxylic acid]
* * * | Cc1cncc(-c2ccc(C(=O)O)n2Cc2csc3cccc(Cl)c23)c1 [Compound B15, 1-((4-chlorobenzo[b]thiophen-3-yl)methyl)-2-(5-methylpyridin-3-yl)-1H-pyrrole-5-carboxylic acid]
* * * | Cc1nc(-c2ccccn2)n(Cc2cc(Cl)ccc2Cl)c1C(=O)O [Compound A245, 1-(2,5-dichlorobenzyl)-4-methyl-2-(pyridin-2-yl)-1H-imidazole-5-carboxylic acid]
* * * | Cc1cncc(-c2nc(C(C)(C)O)c(C(=O)O)n2Cc2cc(Cl)ccc2Cl)c1 [Compound A214, 1-(2,5-dichlorobenzyl)-4-(2-hydroxypropan-2-yl)-2-(5-methylpyridine-3-yl)-1H-imidazole-5-carboxylic acid]
* * | Cc1nc(-c2cccnc2)n(Cc2cc(Cl)ccc2F)c1C(=O)O [Compound A42, 1-(5-chloro-2-fluorobenzyl)-4-methyl-2-(pyridin-3-yl)-1H-imidazole-5-carboxylic acid]
* * * | CC(=O)c1nc(-c2cncc(Cl)c2)n(Cc2cc(Cl)ccc2Cl)c1C(=O)O [Compound A218, 4-acetyl-2-(5-chloropyridin-3-yl)-1-(2,5-dichlorobenzyl)-1H-imidazole-5-carboxylic acid]
* * * | Cc1nc(-c2cccnc2)n(Cc2cc(Cl)cc(Cl)c2)c1C(=O)O [Compound A71, 1-(3,5-dichlorobenzyl)-4-methyl-2-(pyridin-3-yl)-1H-imidazole-5-carboxylic acid]
* * | O=C(O)c1c(C2CC2)nc(-c2cccnc2)n1Cc1cccc2ccccc12 [Compound A11, 4-cyclopropyl-1-(napthalen-1-ylmethyl)-2-(pyridin-3-yl)-1H-imidazole-5-carboxylic acid]
* * * | COc1cncc(-c2nc(C)c(C(=O)O)n2Cc2cc(Cl)ccc2Cl)c1 [Compound A157, 1-(2,5-dichlorobenzyl)-2-(5-methoxypyridin-3-yl)-4-methyl-1H-imidazole-5-carboxylic acid]
* * | CC(C)c1nc(-c2cncc(F)c2)n(Cc2cccc3ccccc23)c1C(=O)O [Compound A152, 2-(5-fluoropyridin-3-yl)-4-isopropyl-1-(naphthalen-1-ylmethyl)-1H-imidazole-5-carboxylic acid]
* * * | O=C(O)/C=C/c1ccc(-c2cccnc2)n1Cc1cccc2ccccc12 [Compound B33, (E)-3-(1-(naphthalen-1-ylmethyl)-2-(pyridin-3-yl)-1H-pyrrole-5-yl)acrylic acid]
* * * | Cc1nc(Oc2cnccc2Br)n(Cc2cc(Cl)ccc2Cl)c1C(=O)O [Compound A258, 2-((4-bromopyridin-3-yl)oxy)-1-(2,5-dichlorobenzyl)-4-methyl-1H-imidazole-5-carboxylic acid]
* * * | N#Cc1nc(-c2cccnc2)n(Cc2cc(Cl)ccc2Cl)c1C(=O)O [Compound A101, 4-cyano-1-(2,5-dichlorobenzyl)-2-(pyridin-3-yl)-1H-imidazole-5-carboxylic acid]
* * * | Cc1nc(Oc2cccnc2Br)n(Cc2cc(Cl)ccc2Cl)c1C(=O)O [Compound A254, 2-((2-bromopyridin-3-yl)oxy)-1-(2,5-dichlorobenzyl)-4-methyl-1H-imidazole-5-carboxylic acid]
* * * | O=C(O)c1c(C2CC2)nc(-c2cccnc2)n1Cc1cc(F)cc2ccsc12 [Compound A86, 4-cyclopropyl-1-((5-fluorobenzo[b]thiophen-7-yl)methyl)-2-(pyridin-3-yl)-1H-imidazole-5-carboxylic acid]
* * | Cc1nc(-c2cncc(F)c2)n(Cc2csc3ccccc23)c1C(=O)O [Compound A133, 1-(benzo[b]thiophen-3-ylmethyl)-2-(5-fluoropyridin-3-yl)-4-methyl-1H-imidazole-5-carboxylic acid]
* * * | O=C(O)c1ccc(-c2cccnc2)n1Cc1csc2ccccc12 [Compound B8, 1-(benzo[b]thiophen-3-ylmethyl)-2-(pyridin-3-yl)-1H-pyrrole-5-carboxylic acid]
* * * | Cc1cccc2scc(Cn3c(C(=O)O)ccc3-c3cccnc3)c12 [Compound B7, 1-((4-methylbenzo[b]thiophen-3-yl)methyl)-2-(pyridin-3-yl)-1H-pyrrole-5-carboxylic acid]
* * * | Cc1cncc(-c2ccc(C(=O)O)n2Cc2cccc3ccsc23)c1 [Compound B21, 1-(benzo[b]thiophen-7-ylmethyl)-2-(5-methylpyridin-3-yl)-1H-pyrrole-5-carboxylic acid]
* * | Cc1nc(-c2cccnc2)n(Cc2cc(Cl)sc2Cl)c1C(=O)O [Compound A79, 1-((2,5-dichlorothiophen-3-yl)methyl)-4-methyl-2-(pyridin-3-yl)-1H-imidazole-5-carboxylic acid]
* * | O=C(O)C1(Sc2cnc(-c3cncc(Cl)c3)n2Cc2cc(Cl)ccc2Cl)CCC1 [Compound A263, 1-((2-(5-chloropyridin-3-yl)-1-(2,5-dichlorobenzyl)-1H-imidazol-5-yl)thio)cyclobutanecarboxylic acid]
* * * | Cc1ccc(C)c(Cn2c(C(=O)O)ccc2-c2cccnc2)c1 [Compound B12, 1-(2,5-dimethylbenzyl)-2-(pyridin-3-yl)-1H-pyrrole-5-carboxylic acid]
* * * | Cc1nc(-c2cncc(C(F)(F)F)c2)n(Cc2csc3cccc(Cl)c23)c1C(=O)O [Compound A143, 1-((4-chlorobenzo[b]thiophen-3-yl)methyl)-4-methyl-2-(5-(trifluoromethyl)pyridin-3-yl)-1H-imidazole-5-carboxylic acid]
* * | O=C(O)c1c(C2CC2)nc(-c2cccnc2)n1Cc1csc2cccc(C(F)(F)F)c12 [Compound A35, 4-cyclopropyl-2-(pyridin-3-yl)-1-((4-(trifluoromethyl)benzo[b]thiophen-3-yl)methyl)-1H-imidazole-5-carboxylic acid]
* * * | Cc1nc(-c2cccnc2)n(Cc2cc(C(F)(F)F)ccc2Cl)c1C(=O)O [Compound A43, 1-(2-chloro-5-(trifluoromethyl)benzyl)-4-methyl-2-(pyridin-3-yl)-1H-imidazole-5-carboxylic acid]

same assay, conditions: HEK 293 cells expressing human URAT1; 14C-labeled uric acid 25 μM; uptake 37° C. for 5 min; read-out: Inhibitory Activity (IC50 of uric acid transport inhibition)

IC50 [µM] | Compound
2 to 20 | CC(C)(Sc1ncc(-c2cccnc2)n1Cc1cc(Cl)ccc1Cl)C(=O)O [Compound A264]
2 to 20 | Cc1nc(-c2cccnc2)n(Cc2cccc(C#N)c2)c1C(=O)O [Compound A65]
2 to 20 | Cc1nc(-c2cccnc2)n(Cc2ccccc2F)c1C(=O)O [Compound A48]
2 to 20 | COc1ccccc1Oc1cncc(-c2nc(C)c(C(=O)O)n2Cc2cccc3ccccc23)c1 [Compound A131]
2 to 20 | Cc1nc(-c2ccncc2)n(Cc2cccc3ccccc23)c1C(=O)O [Compound A239]
2 to 20 | Cc1nc(-c2cccnc2)n(Cc2cccc(Cl)c2)c1C(=O)O [Compound A52]
2 to 20 | COc1ccc(-c2nc(C)c(C(=O)O)n2Cc2cccc3ccccc23)c(OC)n1 [Compound A47]
2 to 20 | Cc1nc(-c2cccnc2)n(Cc2csc3cccc(C)c23)c1C(=O)O [Compound A5]
2 to 20 | Cc1cccc(Cn2c(-c3cccnc3)nc(C)c2C(=O)O)c1 [Compound A58]
2 to 20 | Cc1cncc(-c2nc(C)c(C(=O)O)n2C(C)c2cc(Cl)ccc2Cl)c1 (centres unmarked) [Compound A224]
2 to 20 | CC(C)(Sc1ncc(-c2cncc(F)c2)n1Cc1cc(Cl)ccc1Cl)C(=O)O [Compound A265]
